Laboratory results published in the supplement of paper PMC10307832.

Key:
Assay in all cases: relative viability (nuclei count vs DMSO), 5 days (fraction); higher = more cells survive
TPCA-1 + Foretinib = compound: C1=CC(=CC=C1C2=CC(=C(S2)NC(=O)N)C(=O)N)F [TPCA-1] + COc1cc2c(Oc3ccc(NC(=O)C4(C(=O)Nc5ccc(F)cc5)CC4)cc3F)ccnc2cc1OCCCN1CCOCC1 [Foretinib] (partner 0.25 µM)
In short: (§1)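 Relative viability was taken as the ratio of nuclei in treated wells to nuclei in vehicle wells. Lung cancer cell lines in 1536-well plates received compounds by pin tool one day after seeding, either one drug alone or a fixed anchor-drug dose plus five library-drug doses (not always all listed) in √10 steps. Nuclei were counted on 4× images after 5 days of treatment, and values are medians of duplicate plates.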

TPCA-1 + Pemetrexed = compound: C1=CC(=CC=C1C2=CC(=C(S2)NC(=O)N)C(=O)N)F [TPCA-1] + Nc1nc2[nH]cc(CCc3ccc(C(=O)N[C@@H](CCC(=O)O)C(=O)O)cc3)c2c(=O)[nH]1 [Pemetrexed] (partner 0.2 µM)
In short: as §1

[1] = compound: C1/C(=C\C2=CC=CS2)/C(=O)/C(=C/C3=CC=CS3)/C1 + CCNC(=O)c1noc(-c2cc(C(C)C)c(O)cc2O)c1-c1ccc(CN2CCOCC2)cc1 [Luminespib] (partner 0.01 µM)
In short: as §1

[2] = compound: C[C@]12O[C@H](C[C@]1(O)CO)n1c3ccccc3c3c4c(c5c6ccccc6n2c5c31)CNC4=O [Lestaurtinib] + Nc1nc2[nH]cc(CCc3ccc(C(=O)N[C@@H](CCC(=O)O)C(=O)O)cc3)c2c(=O)[nH]1 [Pemetrexed] (partner 0.2 µM)
In short: as §1

UMC-11 was tested, and the relative viability (TPCA-1 + Foretinib; first compound 0.04 µM) was 1.16, the relative viability (TPCA-1 + Foretinib; first compound 0.1265 µM) was 1.02 and the relative viability (TPCA-1 + Foretinib; first compound 0.4 µM) was 1.04. The relative viability (TPCA-1 + Foretinib; first compound 1.265 µM) was 0.925, the relative viability (TPCA-1 + Foretinib; first compound 4 µM) was 0.387 and the relative viability (TPCA-1 + Pemetrexed; first compound 0.04 µM) was 0.809. The relative viability (TPCA-1 + Pemetrexed; first compound 0.1265 µM) was 0.763, the relative viability (TPCA-1 + Pemetrexed; first compound 0.4 µM) was 0.843 and the relative viability (TPCA-1 + Pemetrexed; first compound 1.265 µM) was 0.776. It also gave a relative viability (TPCA-1 + Pemetrexed; first compound 4 µM) of 0.799, a relative viability ([1]; first compound 0.2 µM) of 1.02 and a relative viability ([1]; first compound 0.6325 µM) of 0.978. It also gave a relative viability ([1]; first compound 20 µM) of 1.05, a relative viability ([2]; first compound 0.005 µM) of 0.923 and a relative viability ([2]; first compound 0.01581 µM) of 0.859. For the same cell line, the relative viability ([2]; first compound 0.05 µM) was 0.436, the relative viability ([2]; first compound 0.1581 µM) was 0.256 and the relative viability ([2]; first compound 0.5 µM) was 0.176.
